Results as given in patent US6914045B2, “Glycopeptide antibiotics” (Wyeth Holdings Corporation, priority 2001, dated 2005).
Converted amounts (≈) assume the structure as drawn. Read-outs that look alike come from different tables or passages of the source.

What was measured:
[1] = test system: Gram-positive bacteria comprised of Staphylococcus sp., Streptococcus sp. and Enterococcus sp.; assay: in vitro antibacterial evaluation, MIC by broth dilution (strain not given); assay type: cell-based
Method: Methods for in vitro Antibacterial Evaluation (Table 1)
The minimum inhibitory concentration (MIC), the lowest concentration of the antibiotic which inhibits growth of the test organism, is determined by the broth dilution method using Muller-Hinton II […] (Baltimore Biological Laboratories) following the recommendations of the National Committee for Clinical Laboratory Standards [Methods for dilution antimicrobial susceptibility tests for bacteria that grow aerobically, approved standard M7-A2, National Committee for Clinical Laboratory Standards, Villanova, Pa.].
An inoculum level of 5×10^5 CFU/mL, and a range of antibiotic concentrations (64-0.06 μg/mL) is used. […] The test organisms include a spectrum of Gram-positive bacteria comprised of Staphylococcus sp., Streptococcus sp. and Enterococcus sp. These organisms include recent clinical isolates that are resistant to methicillin, penicillin and/or vancomycin.

Enterococcus sp. = assay: in vitro antibacterial evaluation, MIC by broth dilution; assay type: cell-based; conditions: broth dilution, 18 hours at 35° C.
Outline: (§1)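 Test organisms, which included recent clinical isolates resistant to methicillin, penicillin and/or vancomycin, were inoculated at 5×10^5 CFU/mL into Muller-Hinton II […] containing antibiotic at 64-0.06 μg/mL. Minimum inhibitory concentrations were then read as the lowest level inhibiting growth.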

Streptococcus sp. = assay: as above; assay type: cell-based; conditions: broth dilution, 18 hours at 35° C.
Outline: as §1

Escherichia coli = assay: as above; assay type: cell-based; conditions: 18 hours at 35° C.
Outline: as §1

Staphylococcus sp. = assay: as above; assay type: cell-based; conditions: broth dilution, 18 hours at 35° C.
Outline: as §1

[2] = test system: Staphylococcus aureus-SMITH (GC 4543); assay: acute lethal infection in mice; assay type: in vivo; conditions: Staphylococcus, read-out: median effective dose (ED50), Staphylococcus aureus-SMITH (GC 4543)
Outline: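 ED50 from 7 day survival ratios pooled over 3 separate tests. Female CD-1 mice, 20+/−2 gm, ip bacterial challenge (trypticase soy broth or hog gastric mucin) lethal to untreated controls in 24-48 hr; iv dosing 30 min after infection in saline or 5% dextrose, n=5/dose.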

## CC(c1ccccc1)[C@@H]1NC(=O)CNC(=O)[C@H](CO)NC(=O)[C@H](C(O)C2CNC(=N)N2)NC(=O)[C@H](C(O)C2CNC(=N)N2)NC(=O)[C@H](Cc2ccc(O)cc2)NC1=O (stereo partly drawn) [Example 280b, Cyclo[glycyl-β-methylphenylalanyltyrosyl-3-(2-iminoimidazolidin-4-yl)seryl-3-(2-iminoimidazolidin-4-yl)serylseryl]]
[1]; Table 2 section r2574-r2600, column 1, 18 hours at 35° C., read-out: MIC, strain of column 1
  MIC: 128 µg/mL (≈ 158 µM)
[1]; Table 2 section r2574-r2600, column 2, 18 hours at 35° C., read-out: MIC, strain of column 2
  MIC: 64 µg/mL (≈ 79.1 µM)
[1]; Table 2 section r2574-r2600, column 3, 18 hours at 35° C., read-out: MIC, strain not given
  MIC: 128 µg/mL (≈ 158 µM)
[1]; Table 2 section r2574-r2600, column 5, 18 hours at 35° C., read-out: MIC, strain of column 5
  MIC: 64 µg/mL (≈ 79.1 µM)
[1]; Table 2 section r2574-r2600, column 7, 18 hours at 35° C., read-out: MIC, strain not given
  MIC: > 128 µg/mL
[1]; Table 2 section r2574-r2600, column 9, 18 hours at 35° C., read-out: MIC, strain of column 9
  MIC: > 128 µg/mL
[1]; Table 2 section r2574-r2600, column 10, 18 hours at 35° C., read-out: MIC, strain of column 10
  MIC: > 128 µg/mL
Enterococcus sp.; Enterococcus avium (GC 4558), read-out: MIC, Enterococcus avium (GC 4558)
  MIC: 128 µg/mL (≈ 158 µM)
Enterococcus sp.; Enterococcus faecalis (ATCC 29212), read-out: MIC, Enterococcus faecalis (ATCC 29212)
  MIC: > 128 µg/mL
Enterococcus sp.; Enterococcus faecalis (GC 4553), read-out: MIC, Enterococcus faecalis (GC 4553)
  MIC: > 128 µg/mL
Enterococcus sp.; Enterococcus faecalis (GC 4554), read-out: MIC, Enterococcus faecalis (GC 4554)
  MIC: > 128 µg/mL
Enterococcus sp.; Enterococcus faecalis (GC 6189), read-out: MIC, Enterococcus faecalis (GC 6189)
  MIC: > 128 µg/mL
Enterococcus sp.; Enterococcus faecium (GC 2243), read-out: MIC, Enterococcus faecium (GC 2243)
  MIC: 128 µg/mL (≈ 158 µM)
Enterococcus sp.; Enterococcus faecium (GC 4556), read-out: MIC, Enterococcus faecium (GC 4556)
  MIC: > 128 µg/mL
Enterococcus sp.; Enterococcus faecium (GC 4557), read-out: MIC, Enterococcus faecium (GC 4557)
  MIC: 64 µg/mL (≈ 79.1 µM)
Enterococcus sp.; strain ATCC 29212, read-out: MIC Enterococcus faecalis (ATCC 29212)
  MIC: > 128 µg/mL
Enterococcus sp.; strain GC 2242, read-out: MIC Enterococcus faecalis (GC 2242)
  MIC: > 128 µg/mL
Enterococcus sp.; strain GC 2243, read-out: MIC Enterococcus faecium (GC 2243)
  MIC: 128 µg/mL (≈ 158 µM)
Enterococcus sp.; strain GC 2691, read-out: MIC Enterococcus faecalis (GC 2691)
  MIC: > 128 µg/mL
Enterococcus sp.; strain GC 3059, read-out: MIC Enterococcus faecalis (GC 3059)
  MIC: > 128 µg/mL
Enterococcus sp.; strain GC 4552, read-out: MIC Enterococcus faecalis (GC 4552)
  MIC: > 128 µg/mL
Enterococcus sp.; strain GC 4553, read-out: MIC Enterococcus faecalis (GC 4553)
  MIC: > 128 µg/mL
Enterococcus sp.; strain GC 4554, read-out: MIC Enterococcus faecalis (GC 4554)
  MIC: > 128 µg/mL
Enterococcus sp.; strain GC 4556, read-out: MIC Enterococcus faecium (GC 4556)
  MIC: > 128 µg/mL
Enterococcus sp.; strain GC 4557, read-out: MIC Enterococcus faecium (GC 4557)
  MIC: 64 µg/mL (≈ 79.1 µM)
Enterococcus sp.; strain GC 4558, read-out: MIC Enterococcus avium (GC 4558)
  MIC: 128 µg/mL (≈ 158 µM)
Enterococcus sp.; strain GC 6189, read-out: MIC Enterococcus faecalis (GC 6189)
  MIC: > 128 µg/mL
Streptococcus sp.; strain ATCC 6301, read-out: MIC Streptococcus pneumoniae (ATCC 6301)
  MIC: 32 µg/mL (≈ 39.6 µM)
Streptococcus sp.; strain GC 1894, read-out: MIC Streptococcus pneumoniae (GC 1894)
  MIC: 64 µg/mL (≈ 79.1 µM)
Streptococcus sp.; strain GC 4563, read-out: MIC Streptococcus pyogenes (GC 4563)
  MIC: 64 µg/mL (≈ 79.1 µM)
Streptococcus sp.; strain GC 4564, read-out: MIC Streptococcus agalactiae (GC 4564)
  MIC: 128 µg/mL (≈ 158 µM)
Streptococcus sp.; strain GC 4565, read-out: MIC Streptococcus pneumoniae (GC 4565)
  MIC: 128 µg/mL (≈ 158 µM)
Escherichia coli; ATCC25922, Escherichia coli (ATCC 25922), read-out: MIC, Escherichia coli (ATCC 25922)
  MIC: 32 µg/mL (≈ 39.6 µM)
Escherichia coli; Escherichia coli (GC 4559), read-out: MIC, Escherichia coli (GC 4559)
  MIC: 16 µg/mL (≈ 19.8 µM)
Escherichia coli; Escherichia coli (GC 4560), read-out: MIC, Escherichia coli (GC 4560)
  MIC: 32 µg/mL (≈ 39.6 µM)
Staphylococcus sp.; Staphylococcus, read-out: MIC Coagulase Negative Staphylococcus (GC 4547)
  MIC: 32 µg/mL (≈ 39.6 µM)
Staphylococcus sp.; Staphylococcus, read-out: MIC Coagulase Negative Staphylococcus (GC 4548)
  MIC: 128 µg/mL (≈ 158 µM)
Staphylococcus sp.; Staphylococcus, read-out: MIC Coagulase Negative Staphylococcus (GC 4549)
  MIC: 32 µg/mL (≈ 39.6 µM)
Staphylococcus sp.; Staphylococcus, read-out: MIC Coagulase Negative Staphylococcus (GC 4551)
  MIC: 128 µg/mL (≈ 158 µM)
Staphylococcus sp.; Staphylococcus, read-out: MIC Coagulase Negative Staphylococcus (GC 6257)
  MIC: 32 µg/mL (≈ 39.6 µM)
Staphylococcus sp.; Staphylococcus, read-out: MIC Staphylococcus aureus-SMITH (GC 4543)
  MIC: 64 µg/mL (≈ 79.1 µM)
Staphylococcus sp.; read-out: MIC Staphylococcus aureus (ATCC 29213)
  MIC: 128 µg/mL (≈ 158 µM)
Staphylococcus sp.; read-out: MIC Staphylococcus aureus (GC 1131)
  MIC: > 128 µg/mL
Staphylococcus sp.; read-out: MIC Staphylococcus aureus (GC 3051)
  MIC: 128 µg/mL (≈ 158 µM)
Staphylococcus sp.; read-out: MIC Staphylococcus aureus (GC 3053)
  MIC: > 128 µg/mL
Staphylococcus sp.; read-out: MIC Staphylococcus aureus (GC 4541)
  MIC: 128 µg/mL (≈ 158 µM)
Staphylococcus sp.; read-out: MIC Staphylococcus aureus (GC 4542)
  MIC: 128 µg/mL (≈ 158 µM)
Staphylococcus sp.; read-out: MIC Staphylococcus aureus (GC 4544)
  MIC: 128 µg/mL (≈ 158 µM)
Staphylococcus sp.; read-out: MIC Staphylococcus aureus (GC 4545)
  MIC: 64 µg/mL (≈ 79.1 µM)
Staphylococcus sp.; read-out: MIC Staphylococcus haemolyticus (GC 4546)
  MIC: 32 µg/mL (≈ 39.6 µM)
Staphylococcus sp.; strain ATCC 29213
  MIC Staphylococcus aureus (ATCC 29213): 128 µg/mL (≈ 158 µM)
Staphylococcus sp.; strain GC 1131
  MIC Staphylococcus aureus (GC 1131): >128 µg/mL
Staphylococcus sp.; strain GC 3051
  MIC Staphylococcus aureus (GC 3051): 128 µg/mL (≈ 158 µM)
Staphylococcus sp.; strain GC 3053
  MIC Staphylococcus aureus (GC 3053): >128 µg/mL
Staphylococcus sp.; strain GC 4541
  MIC Staphylococcus aureus (GC 4541): 128 µg/mL (≈ 158 µM)
Staphylococcus sp.; strain GC 4542
  MIC Staphylococcus aureus (GC 4542): 128 µg/mL (≈ 158 µM)
Staphylococcus sp.; strain GC 4544
  MIC Staphylococcus aureus (GC 4544): 128 µg/mL (≈ 158 µM)
Staphylococcus sp.; strain GC 4545
  MIC Staphylococcus aureus (GC 4545): 64 µg/mL (≈ 79.1 µM)
Staphylococcus sp.; strain GC 4546
  MIC Staphylococcus haemolyticus (GC 4546): 32 µg/mL (≈ 39.6 µM)
Staphylococcus sp.; strain GC 4547
  MIC Coagulase Negative Staphylococcus (GC 4547): 32 µg/mL (≈ 39.6 µM)
Staphylococcus sp.; strain GC 4548
  MIC Coagulase Negative Staphylococcus (GC 4548): 128 µg/mL (≈ 158 µM)
Staphylococcus sp.; strain GC 4549
  MIC Coagulase Negative Staphylococcus (GC 4549): 32 µg/mL (≈ 39.6 µM)
Staphylococcus sp.; strain GC 4551
  MIC Coagulase Negative Staphylococcus (GC 4551): 128 µg/mL (≈ 158 µM)
Staphylococcus sp.; strain GC 6257
  MIC Coagulase Negative Staphylococcus (GC 6257): 32 µg/mL (≈ 39.6 µM)
Staphylococcus sp.; strain SMITH GC 4543
  MIC Staphylococcus aureus-SMITH (GC 4543): 64 µg/mL (≈ 79.1 µM)
[2]
  ED50: > 8 mg/kg
